Test system: CD4+ T-cells
Test: Two-colour FACS analysis of CD69 and CD25 expression
Type: cell-based
Settings: CD4+ T-cells activated 72 hours with anti-CD3 and anti-CD28, Shh 100 ng/ml

“Shh peptide: Recombinant mouse Shh amino-terminal peptide (R&D systems); biologically active N-terminal Sonic hedgehog fragment” was tested, and the “CD25 expression in CD3 positive T-cells” value (activated only 31.64%) was 80.46% and the “CD69 expression in CD3 positive T-cells” value (activated only 33.87%) was 70.57%.
